Five compounds from paper PMC6640638 (Journal of the American Chemical Society, 2016) can be followed below.

Assay in all cases: adenylation: pyrophosphate exchange or coupled pyrophosphate release assay
Format in all cases: biochemical
Holding throughout (details): adenylation step; ATP

Assay [1] concerns the target T1, glycyl-tRNA synthetase (GlyRS, class IIC) (Escherichia coli, UniProt P00960).
T1 sequence (P00960 1-303): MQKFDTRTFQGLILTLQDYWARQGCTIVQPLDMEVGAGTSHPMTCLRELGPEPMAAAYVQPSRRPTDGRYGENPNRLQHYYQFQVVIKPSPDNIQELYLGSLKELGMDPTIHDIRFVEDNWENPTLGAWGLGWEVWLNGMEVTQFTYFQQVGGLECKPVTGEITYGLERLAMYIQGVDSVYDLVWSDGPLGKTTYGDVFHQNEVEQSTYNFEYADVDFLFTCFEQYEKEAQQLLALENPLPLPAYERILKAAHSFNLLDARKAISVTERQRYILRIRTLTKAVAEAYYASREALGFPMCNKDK
T1 sequence (P00961 2-689 partner): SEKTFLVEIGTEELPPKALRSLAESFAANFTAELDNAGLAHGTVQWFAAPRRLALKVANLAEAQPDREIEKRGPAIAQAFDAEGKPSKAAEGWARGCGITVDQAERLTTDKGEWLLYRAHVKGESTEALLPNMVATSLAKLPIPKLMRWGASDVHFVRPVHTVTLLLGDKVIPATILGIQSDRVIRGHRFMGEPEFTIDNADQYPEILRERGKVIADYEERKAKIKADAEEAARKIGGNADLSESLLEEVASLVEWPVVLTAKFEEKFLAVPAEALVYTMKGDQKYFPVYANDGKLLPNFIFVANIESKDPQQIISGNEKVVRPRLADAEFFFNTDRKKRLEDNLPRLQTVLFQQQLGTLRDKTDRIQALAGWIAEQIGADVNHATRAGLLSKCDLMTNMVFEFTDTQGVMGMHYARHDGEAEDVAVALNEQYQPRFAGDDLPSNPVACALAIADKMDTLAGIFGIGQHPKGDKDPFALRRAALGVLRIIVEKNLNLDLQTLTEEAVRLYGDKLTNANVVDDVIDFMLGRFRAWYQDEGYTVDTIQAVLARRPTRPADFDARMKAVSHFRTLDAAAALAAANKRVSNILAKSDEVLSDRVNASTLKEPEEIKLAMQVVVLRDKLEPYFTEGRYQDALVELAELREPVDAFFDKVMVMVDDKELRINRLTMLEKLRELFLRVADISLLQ

Assay [2] deals with phenylalanyl-tRNA synthetase (PheRS, class IIC) (Escherichia coli, UniProt P08312).
Chain of phenylalanyl-tRNA synthetase (PheRS, class IIC) (P08312 whole entry): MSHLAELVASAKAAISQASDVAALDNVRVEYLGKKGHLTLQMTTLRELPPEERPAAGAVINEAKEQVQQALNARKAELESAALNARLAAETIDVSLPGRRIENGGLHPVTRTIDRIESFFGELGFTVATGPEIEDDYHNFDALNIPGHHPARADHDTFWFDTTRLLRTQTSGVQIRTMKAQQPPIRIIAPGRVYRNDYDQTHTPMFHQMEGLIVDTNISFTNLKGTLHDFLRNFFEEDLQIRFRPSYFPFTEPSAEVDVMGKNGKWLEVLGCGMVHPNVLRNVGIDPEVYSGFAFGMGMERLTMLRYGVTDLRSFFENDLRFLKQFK
Chain of phenylalanyl-tRNA synthetase (PheRS, class IIC) (P07395 whole entry partner): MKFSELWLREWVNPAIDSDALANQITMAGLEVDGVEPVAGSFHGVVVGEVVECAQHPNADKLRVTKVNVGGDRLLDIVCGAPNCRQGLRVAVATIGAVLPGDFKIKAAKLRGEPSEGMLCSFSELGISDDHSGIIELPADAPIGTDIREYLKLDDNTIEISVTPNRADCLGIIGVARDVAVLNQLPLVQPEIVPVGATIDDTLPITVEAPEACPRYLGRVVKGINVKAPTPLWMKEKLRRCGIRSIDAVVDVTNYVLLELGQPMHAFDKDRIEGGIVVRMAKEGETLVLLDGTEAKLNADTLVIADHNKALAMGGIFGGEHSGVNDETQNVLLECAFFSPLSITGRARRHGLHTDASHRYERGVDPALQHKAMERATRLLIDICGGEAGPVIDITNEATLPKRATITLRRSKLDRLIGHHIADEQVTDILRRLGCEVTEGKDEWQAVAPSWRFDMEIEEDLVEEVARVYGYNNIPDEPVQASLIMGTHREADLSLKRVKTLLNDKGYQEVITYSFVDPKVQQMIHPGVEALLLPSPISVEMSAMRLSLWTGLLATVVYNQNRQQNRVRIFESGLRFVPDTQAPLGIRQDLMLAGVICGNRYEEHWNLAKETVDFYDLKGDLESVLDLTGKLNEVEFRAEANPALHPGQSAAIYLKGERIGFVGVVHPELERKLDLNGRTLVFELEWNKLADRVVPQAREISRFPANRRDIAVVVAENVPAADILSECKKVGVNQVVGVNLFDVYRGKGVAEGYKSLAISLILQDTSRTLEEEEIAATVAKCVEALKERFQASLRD
The target of assay [3] is T2, tyrosyl-tRNA synthetase (TyrRS, class IC) (Escherichia coli, UniProt P0AGJ9).
T2 sequence (P0AGJ9 2-424): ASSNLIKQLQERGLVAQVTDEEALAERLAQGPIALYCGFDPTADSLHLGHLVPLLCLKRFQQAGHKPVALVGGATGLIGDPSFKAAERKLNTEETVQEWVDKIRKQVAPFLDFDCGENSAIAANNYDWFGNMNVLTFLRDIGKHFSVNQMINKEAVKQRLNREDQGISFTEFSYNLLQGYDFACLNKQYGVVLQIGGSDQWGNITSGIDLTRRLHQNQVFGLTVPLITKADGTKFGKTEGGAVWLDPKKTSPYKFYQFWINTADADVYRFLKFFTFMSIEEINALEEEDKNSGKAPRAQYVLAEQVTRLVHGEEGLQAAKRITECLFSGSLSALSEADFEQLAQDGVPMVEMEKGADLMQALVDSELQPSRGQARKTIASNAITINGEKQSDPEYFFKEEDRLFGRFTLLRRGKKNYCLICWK

In the case of `NCC(=O)O` [α-Gly], the KM result in assay [1] was “GlyRS and PheRS (class II) tolerate the expanded β^3-amino acid backbone”.

Take `NC(CC(=O)O)Cc1ccccc1` (stereo not drawn) [β^3-Phe]: the KM entry in assay [2] was “GlyRS and PheRS (class II) tolerate the expanded β^3-amino acid backbone”.

As to `NCCC(=O)O` [β^3-Gly], the KM entry in assay [1] was “GlyRS and PheRS (class II) tolerate the expanded β^3-amino acid backbone”.

For `N[C@@H](Cc1ccccc1)C(=O)O` [α-Phe], the KM result in assay [2] was “GlyRS and PheRS (class II) tolerate the expanded β^3-amino acid backbone”.

With `N[C@@H](Cc1ccc(O)cc1)C(=O)O` [α-Tyr], the KM entry in assay [3] is “GluRS and TyrRS (both class I) show the greatest selection against β^3-amino acid substrates”.
